{"source": "paper PMC8203801", "about": "(Communications Biology, 2021)", "target": "HSA (Homo sapiens, UniProt P02768)", "sequence (P02768 25-609)": "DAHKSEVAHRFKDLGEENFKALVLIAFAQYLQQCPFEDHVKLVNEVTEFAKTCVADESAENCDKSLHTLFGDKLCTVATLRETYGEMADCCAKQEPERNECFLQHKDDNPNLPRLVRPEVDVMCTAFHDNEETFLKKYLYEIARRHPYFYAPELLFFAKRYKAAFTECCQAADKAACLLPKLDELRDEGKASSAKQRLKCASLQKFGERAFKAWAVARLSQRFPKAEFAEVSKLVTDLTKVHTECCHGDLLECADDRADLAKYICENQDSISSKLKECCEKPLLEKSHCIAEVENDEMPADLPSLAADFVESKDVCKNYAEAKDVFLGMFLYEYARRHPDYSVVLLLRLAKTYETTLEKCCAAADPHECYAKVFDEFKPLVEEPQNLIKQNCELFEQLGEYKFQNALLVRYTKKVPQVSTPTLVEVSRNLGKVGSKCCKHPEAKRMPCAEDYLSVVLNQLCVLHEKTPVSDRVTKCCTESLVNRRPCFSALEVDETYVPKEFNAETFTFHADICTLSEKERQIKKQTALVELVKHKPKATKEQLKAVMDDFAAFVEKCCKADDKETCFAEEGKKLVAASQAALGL", "assay": "Dansylsarcosine (DS) binding to prepared HSA, fluorescence titration", "settings": "range over samples", "method": "Prepared HSA was diluted with phosphate-buffered saline (PBS) to a final concentration of 10 µmol/L, and 100 µL of this dilution was applied to a flat-bottomed, half area, polystyrene, black 96-well plate (Greiner Bio-One, Kremsmuenster, Austria). […] The resulting fluorescence was measured using FLUOstar OPTIMA microplate reader (BMG LABTECH, Ortenberg, Germany). Fluorescence excitation and emission detection were performed at 355 nm and 460 nm, respectively. Binding curves were fitted applying non-linear regression using GraphPad Prism Software (Version 5; GraphPad Software, San Diego, CA, USA) after subtraction of non-specific binding. Dissociation constants (Kd) were calculated at DS concentrations, where half-maximal fluorescence was reached.", "data": [{"smiles": "CN(C)c1cccc2c(S(=O)(=O)N(C)CC(=O)O)cccc12", "note": "[dansylsarcosine]", "values": [{"measurement": "Kd", "setting": "binding of dansylsarcosine to HSA of healthy donors", "result": "12 to 18", "unit": "µM"}, {"measurement": "Kd", "setting": "binding of dansylsarcosine to patients' HSA (chronic liver failure)", "result": "13 to 28", "unit": "µM"}]}]}
